From PMC13172357 (Nature Communications, 2026)

How the values were obtained:
Panc89 cells [1] = experiment: Confluence measurement (cell growth), Panc89; assay type: cell-based, human; conditions: Panc89, 1-10 µM, 72 h, 25 mM or 5 mM D-glucose
[2] = target: T1, human USP7 full length protein (Homo sapiens, UniProt Q93009); experiment: USP7 inhibition assay (Ubiquitin-Rhodamine110Gly cleavage); assay type: biochemical; conditions: Ub-RhoG cleavage, read-out: IC50 (half-maximal inhibition)
T1 construct: human USP7 full length protein
T1 sequence (Q93009 whole entry): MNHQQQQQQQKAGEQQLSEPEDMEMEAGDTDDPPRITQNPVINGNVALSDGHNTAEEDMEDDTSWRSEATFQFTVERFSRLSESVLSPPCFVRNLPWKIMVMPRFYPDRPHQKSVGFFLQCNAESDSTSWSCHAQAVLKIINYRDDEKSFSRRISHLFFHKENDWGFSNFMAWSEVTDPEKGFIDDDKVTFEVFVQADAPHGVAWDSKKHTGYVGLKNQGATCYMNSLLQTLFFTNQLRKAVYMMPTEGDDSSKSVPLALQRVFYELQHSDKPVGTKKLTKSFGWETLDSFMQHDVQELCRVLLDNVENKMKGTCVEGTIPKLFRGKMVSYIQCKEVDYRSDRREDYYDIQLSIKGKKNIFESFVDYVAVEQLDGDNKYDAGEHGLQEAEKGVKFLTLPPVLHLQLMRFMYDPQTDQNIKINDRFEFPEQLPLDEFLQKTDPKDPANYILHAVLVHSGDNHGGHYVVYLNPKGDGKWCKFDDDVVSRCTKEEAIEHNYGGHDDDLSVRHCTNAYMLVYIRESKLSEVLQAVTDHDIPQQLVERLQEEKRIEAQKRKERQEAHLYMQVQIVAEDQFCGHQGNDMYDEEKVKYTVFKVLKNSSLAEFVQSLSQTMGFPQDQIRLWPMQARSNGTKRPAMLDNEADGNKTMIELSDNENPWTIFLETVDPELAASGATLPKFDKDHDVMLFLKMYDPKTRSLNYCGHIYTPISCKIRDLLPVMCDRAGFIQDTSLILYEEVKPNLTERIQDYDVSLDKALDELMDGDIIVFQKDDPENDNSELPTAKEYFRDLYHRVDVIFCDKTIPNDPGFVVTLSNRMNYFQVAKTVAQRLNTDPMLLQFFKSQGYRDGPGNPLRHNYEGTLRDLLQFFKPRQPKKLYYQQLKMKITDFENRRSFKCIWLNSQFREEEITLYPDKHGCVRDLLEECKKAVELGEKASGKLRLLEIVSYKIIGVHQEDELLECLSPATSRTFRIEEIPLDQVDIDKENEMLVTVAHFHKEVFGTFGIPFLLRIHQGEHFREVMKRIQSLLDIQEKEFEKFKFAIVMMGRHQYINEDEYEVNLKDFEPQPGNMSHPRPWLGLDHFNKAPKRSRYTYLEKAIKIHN
Protocol: USP7 inhibitors in DMSO were diluted in UbR buffer (40 mM Tris-HCl pH 8, 150 mM NaCl, 1 mM TCEP, 0.1 mg/mL BSA, 0.01% Tween20) to a concentration of 80 μM (4x). This stock was then further diluted in an 11-times serial dilution in UbR buffer containing 4% DMSO (4x). To this was added the same volume of human USP7 full length protein[59] […] The assay was initiated upon addition of 10 μL per well of Ubiquitin-Rhodamine110Gly (Ub-RhoG) (100 nM in UbR buffer, 2x). […] Normalization was carried out using samples featuring either no inhibitor or no enzyme as respective controls. […] Slopes of fluorescence over time curves were determined with Microsoft Excel through linear regression using the first 15 min of each measurement.

[3] = test system: Ma-Mel-47 USP7 K.O. cells; experiment: Medium color switch (images), Ma-Mel-47 USP7 K.O. cells; assay type: cell-based, human; conditions: Ma-Mel-47 USP7-KO, 72 h, 5 µM NK192, 10 µM FT671, 1 µM NK266
HiBiT-USP7 = HiBiT-USP7 (Homo sapiens, UniProt Q93009); experiment: HiBiT USP7 degradation assay, MV4-11 cells; assay type: cell-based; conditions: MV4-11 HiBiT-USP7, 6 h and 24 h
HiBiT-USP7, sequence (Q93009 whole entry, the tested form may be a part): as the sequence (Q93009 whole entry) above
Protocol: HiBiT-USP7 construct was cloned by extraction of USP7 fragment from plasmid pQHA-USP7 WT puroR (Addgene #46753) using appropriate restriction sites. The USP7 fragment was then ligated into the pRRL-PGK-HiBiT entry vector to generate the plasmid.
Lentiviral infection was used to generate stable a MV4-11 HiBiT cell line. Lentivirus was produced using plasmids psPAX2, pMD2.G, and HiBiT-USP7 plasmid in HEK293 cells. MV4-11 cells were infected with filtered virus supernatant and selected after 48 h of infection for the generation of the stable MV4-11^HiBiT-USP7 cell line.
The assay was performed as described previously. Briefly, MV4-11^HiBiT-USP7 cells were seeded and treated with compounds for the indicated time. Nano-Glo HiBiT Lytic Detection System (Promega) was used for the assay and luminescence was measured on a Tecan Spark microplate reader (Tecan). DC50 values were calculated using the sigmoidal dose-response (four parameters) equation in GraphPad Prism and are given as the concentration where 50% of the total signal was remaining. Dmax values are given as the maximum degradation observed at any concentration.

Panc89 cells [4] = experiment: Total proteome analysis, DDA mass spectrometry, Panc89 cells; assay type: cell-based, H. sapiens; conditions: DDA Panc89, 5 µM, 6, 24 or 72 h
Protocol: Following treatment, cells were harvested, washed twice with PBS, and pellets were flash frozen in liquid nitrogen before being stored at −80 °C. Samples were prepared using the single-pot, solid-phase-enhanced sample-preparation (SP3) strategy. All buffers and solutions were prepared with mass spectrometry (MS)-grade water (Honeywell). Cell pellets were taken up in 100 µL 1x sample buffer (50 mM Hepes pH 8.0, 1% (wt/v) SDS, 1% (v/v) NP-40, 10 mM TCEP, 40 mM chloroacetamide) and samples were heated at 90 °C for 5 min prior to sonication with a Bioruptor UCD-300 (Diagenode) for ten cycles of 1 min pulse and 30 s pause at high power. The samples were then supplemented with Benzonase (20 U/sample) and sonified for 5 min in a water bath (Bandelin) followed by 30 min incubation at […].
The protein extracts were then centrifuged (20000 ×g, RT, 40 min) and the protein concentration of the cleared lysates was determined using the Pierce 660 nm Protein Assay Reagent (#22660; Thermo Scientific) with the Ionic Detergent Compatibility Reagent (#22663; Thermo Scientific) according to the manufacturers’ instructions. Next, 15 µg of total protein per sample in a volume of 100 µL sample buffer was transferred to a 500 µL 96-well plate and treated with 7 U of benzonase (#71206; Merck Millipore) in dilution buffer (20 mM Hepes pH 8.0, 2 mM MgCl2) at 37 °C for 30 min with agitation at 1500 rpm. After Benzonase treatment samples were heated to 90 °C for 5 min and after cooling down to room temperature, iodoacetamide to a final concentration of 10 mM was added for complete alkylation of cysteines (37 °C, 15 min, 1000 rpm, in the dark).
Then, 3 µL of a 50 µg/µL 1:1 mixture of hydrophilic (#45152105050250) and hydrophobic (#65152105050250) carboxylate modified Sera-Mag SpeedBeads (Cytiva), that were washed twice with MS-grade water, were added to the samples. The next steps were carried out at room temperature unless noted otherwise. Afterwards, the samples were mixed shortly (1 min, 1000 rpm) and collected by short centrifugation (10 s, 200 ×g). […]

[5] = test system: proteins enriched from Panc89 lysate; experiment: Competitive pulldown with NK264-functionalized beads, mass spectrometry; assay type: binding, human; conditions: 10 µM competitor
Protocol: The next steps were carried out at room temperature unless noted otherwise. Afterwards, the samples were mixed shortly (1 min, 1000 rpm) and collected by short centrifugation (10 s, 200 ×g). Protein binding was induced by the addition of an equal volume of pure ethanol (10 min, 1000 rpm), the beads were collected by a brief centrifugation step (10 s, 200 ×g) and the plate was placed on a magnetic stand. Beads were allowed to bind for at least 5 min before the supernatant was removed. The beads were then taken up in 180 µL 80% ethanol and transferred to a fresh multiwell plate.
Samples were incubated at 37 °C for 19 h while shaking (1300 rpm). On the next day, the samples were briefly centrifuged (10 s, 200 ×g) and placed on a magnet for 5 min. The clear solution containing the tryptic peptides was transferred to a fresh multiwell plate. The beads were taken up in 47 µL 25 mM ammonium bicarbonate and incubated while shaking (10 min, 1000 rpm).

In the case of `C[C@H](CC(=O)N1CCC(O)(Cn2cnc3c(cnn3-c3ccc(F)cc3)c2=O)CC1)c1ccccc1` [NK192], the “Cell growth (in words)” value (Panc89 cells [1]) is reported as “not affected”, the IC50 [2] is reported as 20 nM and the “Change of media color (in words)” value [3] is reported as “the same change of media color”. The “HiBiT-USP7 levels (in words)” value (HiBiT-USP7) was “partial reduction of USP7 levels”, the “USP7 protein level changes (in words)” value (Panc89 cells [4]) was “did not lead to USP7 protein level changes beyond the significance threshold” and the “Proteome-wide target specificity (in words)” value [5] was “very high specificity for USP7”.
